Measured values from US12653191B2, “Active compound combinations” (Bayer Aktiengesellschaft, priority 2020, dated 2026).
Like-named read-outs stand apart in the source and are kept apart here.

What was measured:
Format in all cases: cell-based
[1] = system: Fusarium culmorum; experiment: in vitro-Test with fungal microorganisms, Method A (tables G1-G4); conditions: alone
Procedure, shortened: (§1)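 Growth inhibition was measured photometrically at 620 nm 3–5 days after application, with 100% efficacy meaning no growth and 0% meaning growth equal to the untreated control. Fungal spore or mycelium suspension in potato dextrose broth was added onto solvent-evaporated compound and incubated at 20° C and 85% relative humidity.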

[2] = system: Colletotrichum lindemuthianum; experiment: in vitro-Test with fungal microorganisms, Method A (tables D1-D8); conditions: Colletotrichum lindemuthianum, read-out: Efficacy %
Procedure, shortened: as §1

[3] = system: Cercospora beticola; experiment: in vitro-Test with fungal microorganisms, Method A (tables C1-C10); conditions: Cercospora beticola, read-out: Efficacy %
Procedure, shortened: as §1

[4] = system: Diaporthe citri; experiment: in vitro-Test with fungal microorganisms, Method A (tables F1-F11)
Procedure, shortened: as §1

[5] = system: Alternaria alternata; experiment: in vitro-Test with fungal microorganisms, Method B (tables A13-A22); conditions: Alternaria alternata, single compound, 10 ppm; read-out: Efficacy
Procedure, shortened: (§2)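 Cpd in MeOH + alkylaryl-polyglycol-ether, solvent evaporated; liquid medium + fungal spores/mycelium added; OD600 read; 3–7 d, 20° C., 85% RH; growth inhibition by photometry, % efficacy vs untreated ctrl.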

[6] = system: Botrytis cinerea; experiment: in vitro-Test with fungal microorganisms, Method B (tables B15-B18); conditions: Botrytis cinerea, read-out: Efficacy %
Procedure, shortened: as §2

[7] = system: Colletotrichum coccodes; experiment: in vitro-Test with fungal microorganisms, Method B (tables J1-J11); conditions: Colletotrichum coccodes, read-out: Efficacy %
Procedure, shortened: as §2

[8] = system: Ustilago segetum var. avenae; experiment: in vitro-Test with fungal microorganisms, Method B (tables I6-I11); conditions: read-out: Efficacy %
Procedure, shortened: as §2

[9] = system: Cordana musae; experiment: in vitro-Test with fungal microorganisms, Method B (tables E9-E16); conditions: Neocordana musae, single active, read-out: Efficacy
Procedure, shortened: as §2

[10] = system: Cordana musae; experiment: in vitro-Test with fungal microorganisms, Method A (tables E1-E8); conditions: Neocordana musae, read-out: Efficacy %
Procedure, shortened: as §1

[11] = system: Cercospora beticola; experiment: in vitro-Test with fungal microorganisms, Method B (tables C11-C20); conditions: Cercospora beticola, single compound, read-out: Efficacy %
Procedure, shortened: as §2

[12] = system: Diaporthe citri; experiment: in vitro-Test with fungal microorganisms, Method B (tables F12-F15)
Procedure, shortened: as §2

[13] = system: Botrytis cinerea; experiment: in vitro-Test with fungal microorganisms, Method A (tables B1-B14); conditions: Botrytis cinerea, alone, 0.4 ppm; read-out: Efficacy %
Procedure, shortened: as §1

[14] = system: Parastagonospora nodorum; experiment: in vitro-Test with fungal microorganisms, Method B (tables H5-H8); conditions: Parastagonospora nodorum, read-out: Efficacy
Procedure, shortened: as §2

[15] = system: Fusarium culmorum; experiment: in vitro-Test with fungal microorganisms, Method B (tables G5-G15); conditions: Fusarium culmorum, single active compound, read-out: Efficacy
Procedure, shortened: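 Read photometrically at 600 nm after 3-7 days at 20° C and 85% relative humidity, Fusarium culmorum growth inhibition is expressed against untreated control. Wells hold solvent-evaporated compound (from methanol/emulsifier) overlaid with spore- or mycelium-amended growth medium.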

## Fc1ccc(Oc2ccnc3cc(Cl)cc(Cl)c23)cc1 [(13.005) quinoxyfen, quinoxyfen]
[1]; 10.0 ppm
  Efficacy: 0%
[1]; Fusarium culmorum, 0.08 ppm, read-out: Efficacy
  inhibition of growth at 0.08 ppm: 0%
[1]; Fusarium culmorum, 10.0 ppm, read-out: Efficacy
  inhibition of growth at 10 ppm: 0%
[2]; mixing partner alone, 0.08 ppm
  inhibition of growth at 0.08 ppm: 0%
[2]; mixing partner alone, 0.4 ppm
  inhibition of growth at 0.4 ppm: 0%
[2]; mixing partner alone, 2.0 ppm
  inhibition of growth at 2 ppm: 0%
[2]; single active at 0.08 ppm
  inhibition of growth at 0.08 ppm: 1%
[2]; single active at 0.4 ppm
  inhibition of growth at 0.4 ppm: 0%
[2]; single active at 2.0 ppm
  inhibition of growth at 2 ppm: 0%
[2]; single active at 10.0 ppm
  inhibition of growth at 10 ppm: 24%
[3]; 0.08 ppm alone
  inhibition of growth at 0.08 ppm: 10%
[3]; 0.4 ppm alone
  inhibition of growth at 0.4 ppm: 0%
[3]; 2.0 ppm alone
  inhibition of growth at 2 ppm: 4%
[3]; 10.0 ppm alone
  inhibition of growth at 10 ppm: 34%
[4]; Diaporthe citri, Table F10, 0.08 ppm alone, read-out: Efficacy
  inhibition of growth at 0.08 ppm: 52%
[4]; Diaporthe citri, Table F10, 0.4 ppm alone, read-out: Efficacy
  inhibition of growth at 0.4 ppm: 6%
[4]; Diaporthe citri, Table F10, 2.0 ppm alone, read-out: Efficacy
  inhibition of growth at 2 ppm: 10%
[4]; Diaporthe citri, Table F10, 10.0 ppm alone, read-out: Efficacy
  inhibition of growth at 10 ppm: 20%
[4]; Diaporthe citri, applied alone, 0.4 ppm, read-out: Efficacy
  inhibition of growth at 0.4 ppm: 15%
[4]; Diaporthe citri, applied alone, 10.0 ppm, read-out: Efficacy
  inhibition of growth at 10 ppm: 41%
[4]; applied alone, 2.0 ppm
  Efficacy: 0%
[5]
  inhibition of growth at 10 ppm: 30%
[6]; 0.08 ppm alone
  inhibition of growth at 0.08 ppm: 0%
[6]; 0.4 ppm alone
  inhibition of growth at 0.4 ppm: 0%
[7]; 0.08 ppm
  inhibition of growth at 0.08 ppm: 0%
[7]; 0.4 ppm
  inhibition of growth at 0.4 ppm: 0%
[7]; 2 ppm
  inhibition of growth at 2 ppm: 48%
[7]; single active compound at 0.08 ppm
  inhibition of growth at 0.08 ppm: 0%
[7]; single active compound at 0.4 ppm
  inhibition of growth at 0.4 ppm: 0%
[7]; single active compound at 2 ppm
  inhibition of growth at 2 ppm: 18%
[7]; single active compound at 10 ppm
  inhibition of growth at 10 ppm: 28%
[8]; 0.08 ppm
  inhibition of growth at 0.08 ppm: 0%
[8]; 2 ppm
  inhibition of growth at 2 ppm: 0%
[8]; 10 ppm
  inhibition of growth at 10 ppm: 9%
[9]; 0.08 ppm
  inhibition of growth at 0.08 ppm: 0%
[9]; 0.4 ppm
  inhibition of growth at 0.4 ppm: 0%
[9]; 10 ppm
  inhibition of growth at 10 ppm: 2%
[10]; mixing partner alone
  inhibition of growth at 0.4 ppm: 0%
  inhibition of growth at 2 ppm: 0%
  inhibition of growth at 10 ppm: 0%
[10]; single substance, 0.08 ppm
  inhibition of growth at 0.08 ppm: 0%
[10]; single substance
  inhibition of growth at 0.4 ppm: 0%
  inhibition of growth at 2 ppm: 0%
  inhibition of growth at 10 ppm: 34%
[11]; 0.4 ppm
  inhibition of growth at 0.4 ppm: 0%
[11]; 2 ppm
  inhibition of growth at 2 ppm: 0%
[11]; 10 ppm
  inhibition of growth at 10 ppm: 4%
[12]; Table F13, 0.08 ppm alone
  Efficacy: 0%
[12]; Table F13, 2 ppm alone
  Efficacy: 24%
[12]; Table F15, 0.4 ppm alone
  Efficacy: 0%
[12]; Table F15, 2 ppm alone
  Efficacy: 13%
[12]; Table F15, 10 ppm alone
  Efficacy: 76%
[13]
  inhibition of growth at 0.4 ppm: 0%
[14]; 0.08 ppm
  inhibition of growth at 0.08 ppm: 5%
[14]; 0.4 ppm
  inhibition of growth at 0.4 ppm: 4%
[14]; 2 ppm
  inhibition of growth at 2 ppm: 1%
[14]; 10 ppm
  inhibition of growth at 10 ppm: 33%
[15]; 0.08 ppm
  inhibition of growth at 0.08 ppm: 0%
[15]; 0.4 ppm
  inhibition of growth at 0.4 ppm: 2%
[15]; 10 ppm
  inhibition of growth at 10 ppm: 8%
